Laboratory results taken from PubChem BioAssay (NCI).
Where “and” joins values, the source holds several entries; their conditions need not be identical. Equal entries are not always repeated.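 The compound was tested at five concentrations on cells cultured in 96-well plates, with a 48-hour exposure period. GI50 = concentration required for 50% inhibition of growth. TGI is the concentration that stops growth completely.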

Key:
Assay in all cases: inhibition of tumour cell growth, NCI panel, 48 h
NCI-H460 lung = test system: NCI-H460 lung
786-0 renal = test system: 786-0 renal
RPMI-8226 leukemia = test system: RPMI-8226 leukemia
OVCAR-5 ovarian = test system: OVCAR-5 ovarian
RXF 393 renal = test system: RXF 393 renal
PC-3 prostate = test system: PC-3 prostate
MDA-MB-435 = test system: MDA-MB-435
HS 578T breast = test system: HS 578T breast
CCRF-CEM leukemia = test system: CCRF-CEM leukemia
HT29 colon = test system: HT29 colon
BT-549 breast = test system: BT-549 breast
EKVX NSCLC = test system: EKVX NSCLC
CAKI-1 renal = test system: CAKI-1 renal

SMILES	TGI (NCI-H460 lung)	TGI (786-0 renal)	TGI (RPMI-8226 leukemia) [µM]	TGI (OVCAR-5 ovarian) [µM]	TGI (RXF 393 renal) [µM]	TGI (PC-3 prostate)	TGI (MDA-MB-435) [µM]	TGI (HS 578T breast) [µM]	TGI (CCRF-CEM leukemia) [µM]	TGI (HT29 colon) [µM]	TGI (BT-549 breast) [µM]	TGI (EKVX NSCLC) [µM]	TGI (CAKI-1 renal)	GI50 (RPMI-8226 leukemia) [µM]	GI50 (MDA-MB-435) [µM]	GI50 (HS 578T breast)	GI50 (BT-549 breast) [µM]	GI50 (CAKI-1 renal)
O=C(NCCC1CNc2ccccc21)OCc1ccccc1 (stereo not given)	> 100 µM	> 100 µM	> 100	> 100	> 100	> 100 µM	> 100	> 100	> 100	> 100	> 100	> 100	> 100 µM					
Cc1ccc(N=N/C(=N/NC(=O)c2ccccc2)c2ccc(N(CCC#N)CCC#N)cc2C)cc1	> 100 µM	> 100 µM	> 100	> 100	> 100	> 100 µM	> 100	46.9	> 100	53.7	> 100	> 100	> 100 µM					
CSC(=O)/C=C1\SS/C(=C\C(=O)SC)S1	7.61 µM	4.03 µM	5.27	13.7	2.8	9.32 µM	7.08	13.8	> 100	7.03	3.26	6.68	4.25 µM					
COc1cc([C@@H]2c3cc4c(cc3[C@@H](Nc3ccc(NC(=O)c5cc([N+](=O)[O-])cn5C)cc3)[C@H]3COC(=O)[C@H]23)OCO4)cc(OC)c1O	0.174 µM and 0.0745 µM	0.29 µM and 0.261 µM	0.116	10.4	> 100	> 100 µM and 12.5 µM	> 100	> 100	0.14	1.33	> 100	> 100	0.204 µM and 0.338 µM	< 0.01	0.415	2.11 µM and 0.756 µM	0.515	0.0214 µM and 0.0725 µM
CC(=O)c1ccc(Nc2c3c(nc4ccccc24)CCCC3)cc1	> 66.8 µM	> 100 µM	> 100	97.9	72.4	> 100 µM	13.8	> 88	> 100	42.6	> 41.3	> 84.6	> 44 µM					
S=C1Cc2c(-c3ccccc3)cc(-c3cccc(Cl)c3)nc2-c2ccccc2N1	7.11 µM	2.21 µM	56.2	> 72.7	12.8	> 96.1 µM	> 60.9	6.12	30.5	11.5	19.5	24.4	9.23 µM					
COc1ccccc1C1c2cc3c(cc2OC2(OC)COC(=O)C12)OCO3 (stereo not given)	> 100 µM	72.1 µM	28.3	> 100	44.2	> 92.7 µM	5.74	34.8	75.6	22.9	> 100	> 82.3	> 100 µM					
CN=c1sc2c(n1C)C(=O)c1ccccc1C2=O	8.01 µM	20.7 µM	24.6	9.26	9.01	> 55.1 µM	0.374	6.16	44.4	10.4	3.58	24.3	15.5 µM					
CC(C)C(Cl)CCC(C)(Cl)C(=O)CBr (stereo not given)	33.4 µM	8.02 µM	2.52	26.7	7.79	23.2 µM	14	23.1	> 100	11.6	22.6	32.8	14.3 µM					
COC(=O)/C=C/c1ccc(OP(=O)(O)O)c(OC)c1	> 100 µM	> 100 µM	> 100	> 100	> 100	> 100 µM	> 100	> 100	> 100	> 100	> 100	> 100	> 100 µM					
N#Cc1ccccc1OCCOc1ccccc1C#N	> 100 µM	> 100 µM	> 100	> 100	> 100	> 100 µM	> 100	> 100	> 100	> 100	> 100	> 100	> 100 µM					
O=c1cc(Nc2cccc(O)c2)[nH]c(=O)[nH]1	> 100 µM	> 100 µM	> 100	> 100	> 100	> 100 µM	> 100	> 100	> 100	> 100	> 100	> 100	> 100 µM					
COC(=O)[C@H](Cc1ccccc1)NC(=O)c1ccc(CNC(=O)/C=C/c2csc(-c3ccccc3)n2)cc1	42.6 µM	21 µM	> 100	> 100	26.8	> 58.2 µM	> 36.7	58.1	> 100	43.1	> 100	> 88.5	> 28.7 µM					
CCN(/C=C1/C(=O)C(c2ccccc2)N(c2ccccc2)C1=O)CC (stereo not given)	> 10 µM	> 10 µM	> 10	> 10	> 10	> 10 µM	> 10	> 10	> 10	> 10	> 10	> 10	> 10 µM					
COc1ccc(/C(Nc2ccccc2)=C(\CCl)c2ccccc2)cc1OC	> 100 µM	> 100 µM	> 100	> 100	> 100	> 100 µM	> 100	> 100	65.5	> 100	> 100	> 100	> 100 µM					
C[C@@H](CC(=O)OCc1ccccc1)OC1OC(COC(=O)C(C)(C)C)C(OC(=O)C(C)(C)C)C(OC(=O)C(C)(C)C)C1OC(=O)C(C)(C)C (stereo not given in full)	> 100 µM	> 100 µM	> 100	> 100	> 100	> 100 µM	> 100	> 100	> 100	> 100	> 100	> 100	> 100 µM					
CC(=O)NC1C(OCC(=O)NCCNc2ccc([N+](=O)[O-])c3[nH]c4ccccc4c(=O)c23)C(O)C(CO)OC1(C)OCc1ccccc1 (stereo not given)	> 100 µM	> 100 µM	> 100	> 100	> 100	> 100 µM	> 100	> 100	> 100	> 100	> 100	> 100	> 100 µM					
C=CCON(C(=O)OC(C)(C)C)C(C)(C)C	> 100 µM	> 100 µM	> 100	> 100	> 100	> 100 µM	> 100	> 100	> 100	> 100	> 100	> 100	> 100 µM					
C=C1CC[C@@H](CCC2CCC3(OC2)O[C@]2(O)CC[C@@]3(C)OC2(C)C)C(C)(C)[C@H]1C/C=C1\CCOC1=O (stereo not given in full)	82.7 µM	31.3 µM	31.2	> 100	49.5	93.9 µM	86.4	> 80.7	83	31.1	49.1	> 71.5	> 88.1 µM					
N#Cc1c(NC(=O)C(F)(F)F)sc2c3c(=O)c4ccccc4c(=O)c=3oc3ccccc3c12	36.5 µM	72.2 µM	56.2	63.3	> 63.4	> 62.2 µM	41.4	14.6	12.5	41.6	53.3	65.4	31.4 µM					
COc1cc2nc(Cl)nc(NS(=O)(=O)c3cc4ccccc4s3)c2cc1OC	> 100 µM	> 100 µM	44.9	50	37.9	75.6 µM	54.5	> 100	33	88.9	57.9	66.5	> 100 µM					
COc1ccc(CCCCNCc2cccc(CNCCCCc3ccc(OC)cc3)c2)cc1	> 19.7 µM	4.51 µM	> 100	4.33	3.28	3.55 µM	3.63	3.27	4.47	3.16	3.36	3.42	3.63 µM					
Cc1c(C)c2c(c(N)c1C#N)C(=O)N(Cc1ccc(S(N)(=O)=O)cc1)C2=O	> 100 µM	> 56.5 µM	> 100	> 87.9	39.3	> 100 µM	> 100	> 100	> 100	> 100	> 100	> 100	> 100 µM					
Cc1ccc(OCC2OC(n3cnc4c(Cl)nc(Nc5cc(Cl)cc(Cl)c5)nc43)CC2Oc2ccc(C)cc2)cc1 (stereo not given)	> 100 µM	> 100 µM	> 100	> 100	> 100	> 100 µM	> 100	> 100	> 100	> 100	> 100	> 100	> 100 µM					
[B]C(=O)NC(CC(C)C)C(=O)NCC(=O)NC1c2ccsc2C(=O)C1O (stereo not given) (tested in a mixture with another compound)	> 31.6 µM	> 100 µM	> 100	> 100	> 100	> 100 µM	> 100	> 100	> 31.6	> 100	> 100	> 100	> 100 µM					
